Results reported in ChEMBL document CHEMBL5331107 (J Med Chem, 2023).

Experiments:
[1] = Metabolic stability in human plasma assessed as half-life incubated for 120 mins by LC-MS/MS analysis; type: ADME, cell-free
[2] = Metabolic stability in human plasma assessed as compound hydrolysis incubated for 120 mins by LC-MS/MS analysis; type: ADME, cell-free; settings: 2 h
[3] = Acute toxicity in Kunming mouse assessed as effect on alopecia at 1000 mg/kg, IG administered as single dose and measured after 7 days; type: organism-based; settings: in vivo, po, 168 h, time 7 day
[4] = Metabolic stability in human liver assessed as intrinsic clearance incubated for 60 mins in the presence of NADPH by LC-MS/MS analysis; type: ADME, tissue-based; settings: read-out: CLH
[5] = Acute toxicity in Kunming mouse assessed as effect on animal death at 1000 mg/kg, IG administered as single dose and measured after 7 days; type: organism-based; settings: in vivo, po, 168 h, time 7 day
[6] = Subacute toxicity in Kunming mouse assessed as anorexia at 50 mg/kg, IG administered via gavage every other day and measured after 14 days; type: organism-based; settings: in vivo, po, 336 h, time 14 day
[7] = system: Human immunodeficiency virus 1; test: Antiviral activity against NNRTI-resistant HIV-1 harboring F227L and V106A double mutant infected in human MT4 cells assessed as protection against virus-induced cytopathic effect incubated for 5 days by MTT assay; type: functional, organism-based; settings: Human immunodeficiency virus 1, MT4, 120 h
[8] = system: Human immunodeficiency virus 1; test: Antiviral activity against NNRTI-resistant HIV-1 harboring E138K mutant infected in human MT4 cells assessed as protection against virus-induced cytopathic effect incubated for 5 days by MTT assay; type: functional, organism-based; settings: Human immunodeficiency virus 1, MT4, 120 h
[9] = Subacute toxicity in Kunming mouse assessed as alopecia at 50 mg/kg, IG administered via gavage every other day and measured after 14 days; type: organism-based; settings: in vivo, po, 336 h, time 14 day
[10] = Subacute toxicity in Kunming mouse assessed as histopathological change in kidney at 50 mg/kg, IG administered via gavage every other day and measured after 14 days by H&E staining based analysis; type: organism-based; settings: in vivo, po, 336 h, time 14 day
[11] = MRT (0 to last) in Sprague-Dawley rat at 2 mg/kg, iv measured at 5 to 600 min by LC-MS/MS analysis; type: ADME, organism-based; settings: in vivo, time 5-600 min
[12] = Cmax in Sprague-Dawley rat at 10 mg/kg, po measured at 15 to 720 min by LC-MS/MS analysis; type: ADME, organism-based; parameters: dose 10 mg/kg, time 15-720 min, route po; settings: in vivo
[13] = Acute toxicity in Kunming mouse assessed as effect on body weight at 1000 mg/kg, IG administered as single dose and measured after 7 days; type: organism-based; settings: in vivo, po, 168 h, time 7 day
[14] = target: Human immunodeficiency virus type 1 reverse transcriptase (Human immunodeficiency virus 1, UniProt Q72547); test: Inhibition of HIV-1 reverse transcriptase assessed as assessed as reduction of biotin-dUTP incorporation into […] incubated for 1 hrs by ELISA analysis
[15] = Metabolic stability in human liver microsomes assessed as half-life incubated for 60 mins in the presence of NADPH by LC-MS/MS analysis; type: ADME, Microsome; settings: liver microsomes
[16] = Subacute toxicity in Kunming mouse assessed as animal death at 50 mg/kg, IG administered via gavage every other day and measured after 14 days; type: organism-based; settings: in vivo, po, 336 h, time 14 day
[17] = Volume of distribution in Sprague-Dawley rat at 2 mg/kg, iv measured at 5 to 600 min by LC-MS/MS analysis; type: ADME, organism-based; settings: in vivo, time 5-600 min
[18] = Acute toxicity in Kunming mouse assessed as tolerance at 1000 mg/kg, IG administered as single dose and measured after 7 days; type: organism-based; settings: in vivo, po, 168 h, time 7 day
[19] = AUC(0 to infinity) in Sprague-Dawley rat at 2 mg/kg, iv measured at 5 to 600 min by LC-MS/MS analysis; type: ADME, organism-based; parameters: time 5-600 min, dose 2 mg/kg, route iv; settings: in vivo
[20] = system: Human immunodeficiency virus 1; type: functional, organism-based; settings: Human immunodeficiency virus 1, MT4, 120 h
[21] = Half-life in Sprague-Dawley rat at 10 mg/kg, po measured at 15 to 720 min by LC-MS/MS analysis; type: ADME, organism-based; settings: in vivo, time 15-720 min
[22] = Subacute toxicity in Kunming mouse assessed as effect on body weight at 50 mg/kg, IG administered via gavage every other day and measured after 14 days; type: organism-based; settings: in vivo, po, 336 h, time 14 day
[23] = Acute toxicity in Kunming mouse assessed as effect on dyspnea at 1000 mg/kg, IG administered as single dose and measured after 7 days; type: organism-based; settings: in vivo, po, 168 h, time 7 day
[24] = Subacute toxicity in Kunming mouse assessed as lethargy at 50 mg/kg, IG administered via gavage every other day and measured after 14 days; type: organism-based; settings: in vivo, po, 336 h, time 14 day
[25] = Subacute toxicity in Kunming mouse assessed as histopathological change in heart at 50 mg/kg, IG administered via gavage every other day and measured after 14 days by H&E staining based analysis; type: organism-based; settings: in vivo, po, 336 h, time 14 day
[26] = Metabolic stability in human plasma assessed as compound remaining incubated for 120 mins by LC-MS/MS analysis; type: ADME, cell-free; settings: read-out: Stability
[27] = AUC(0 to last) in Sprague-Dawley rat at 2 mg/kg, iv measured at 5 to 600 min by LC-MS/MS analysis; type: ADME, organism-based; parameters: dose 2 mg/kg, time upper 600 min, time lower 5 min, route iv; settings: in vivo
[28] = system: Human immunodeficiency virus 1; test: Antiviral activity against NNRTI-resistant HIV-1 harboring L100I mutant infected in human MT4 cells assessed as protection against virus-induced cytopathic effect incubated for 5 days by MTT assay; type: functional, organism-based; settings: Human immunodeficiency virus 1, MT4, 120 h
[29] = Subacute toxicity in Kunming mouse assessed as histopathological change in liver at 50 mg/kg, IG administered via gavage every other day and measured after 14 days by H&E staining based analysis; type: organism-based; settings: in vivo, po, 336 h, time 14 day
[30] = system: Human immunodeficiency virus 1; type: functional, organism-based; settings: Human immunodeficiency virus 1, MT4, 120 h; remark: listed apart in the source
[31] = Clearance in Sprague-Dawley rat at 2 mg/kg, iv measured at 5 to 600 min by LC-MS/MS analysis; type: ADME, organism-based; settings: in vivo, time 5-600 min
[32] = Subacute toxicity in Kunming mouse assessed as dyspnoea at 50 mg/kg, IG administered via gavage every other day and measured after 14 days; type: organism-based; settings: in vivo, po, 336 h, time 14 day
[33] = Tmax in Sprague-Dawley rat at 10 mg/kg, po measured at 15 to 720 min by LC-MS/MS analysis; type: ADME, organism-based; settings: in vivo, time 15-720 min
[34] = Acute toxicity in Kunming mouse assessed as effect on lethargy at 1000 mg/kg, IG administered as single dose and measured after 7 days; type: organism-based; settings: in vivo, po, 168 h, time 7 day
[35] = Metabolic stability in human liver microsomes assessed as intrinsic clearance incubated for 60 mins in the presence of NADPH by LC-MS/MS analysis; settings: liver microsomes
[36] = system: Human immunodeficiency virus 1; type: functional, organism-based; settings: Human immunodeficiency virus 1, MT4, 120 h; remark: listed apart in the source
[37] = Subacute toxicity in Kunming mouse assessed as histopathological change in lung at 50 mg/kg, IG administered via gavage every other day and measured after 14 days by H&E staining based analysis; type: organism-based; settings: in vivo, po, 336 h, time 14 day
[38] = Metabolic stability in human liver microsomes assessed as compound remaining measured after 60 mins in the presence of NADPH by LC-MS/MS analysis; type: ADME, Microsome; settings: liver microsomes, read-out: Stability
[39] = MRT (0 to infinity) in Sprague-Dawley rat at 2 mg/kg, iv measured at 5 to 600 min by LC-MS/MS analysis; type: ADME, organism-based; settings: in vivo, time 5-600 min
[40] = Acute toxicity in Kunming mouse upto 1000 mg/kg, IG administered as single dose and measured after 7 days; type: organism-based; settings: in vivo, po, 168 h, time 7 day
[41] = Subacute toxicity in Kunming mouse assessed as at 50 mg/kg, po administered every other day and measured after 14 days; type: organism-based; settings: in vivo, 336 h, time 14 day
[42] = Half-life in Sprague-Dawley rat at 2 mg/kg, iv measured at 5 to 600 min by LC-MS/MS analysis; type: ADME, organism-based; settings: in vivo, time 5-600 min
[43] = MRT (0 to infinity) in Sprague-Dawley rat at 10 mg/kg, po measured at 15 to 720 min by LC-MS/MS analysis; type: ADME, organism-based; settings: in vivo, time 15-720 min
[44] = system: Human immunodeficiency virus 1; test: Antiviral activity against NNRTI-resistant HIV-1 harboring K103N mutant infected in human MT4 cells assessed as protection against virus-induced cytopathic effect incubated for 5 days by MTT assay; type: functional, organism-based; settings: Human immunodeficiency virus 1, MT4, 120 h
[45] = AUC (0 to last) in Sprague-Dawley rat at 10 mg/kg, po measured at 15 to 720 min by LC-MS/MS analysis; type: ADME, organism-based; parameters: time upper 720 min, time lower 15 min, dose 10 mg/kg, route po; settings: in vivo
[46] = system: Human immunodeficiency virus 1; test: microbe, parasite or virus in culture; settings: Human immunodeficiency virus 1, IIIB, MT4, 120 h
Description: Antiviral activity against wild type HIV-1 IIIB infected in human MT4 cells assessed as protection against virus-induced cytopathic effect incubated for 5 days by MTT assay

[47] = Subacute toxicity in Kunming mouse assessed as histopathological change in spleen at 50 mg/kg, IG administered via gavage every other day and measured after 14 days by H&E staining based analysis; type: organism-based; settings: in vivo, po, 336 h, time 14 day
[48] = Cytotoxicity against human MT4 cells assessed as reduction in cell viability incubated for 5 days by MTT assay; type: toxicity, cell-based; settings: time 5 day
[49] = Acute toxicity in Kunming mouse assessed as effect on anorexia at 1000 mg/kg, IG administered as single dose and measured after 7 days; type: organism-based; settings: in vivo, po, 168 h, time 7 day
[50] = AUC (0 to infinity) in Sprague-Dawley rat at 10 mg/kg, po measured at 15 to 720 min by LC-MS/MS analysis; type: ADME, organism-based; parameters: dose 10 mg/kg, time upper 720 min, time lower 15 min, route po; settings: in vivo

## CC(C)[N+](C)(CCOC(=O)C1c2ccccc2Oc2ccccc21)C(C)C.[Br-] [PROPANTHELINE BROMIDE]
[1]
  half-life: 10 min
[2]
  Stability: Unstable

## CCC(=O)N1CCc2nc(Nc3ccc(C#N)cc3)nc(Oc3c(C)cc(C#N)cc3C)c2C1
[1]
  half-life: > 289 min
[3]
  Activity: Non-Toxic
[4]
  CLint scaled: 125 mL/min/kg
[5]
  Activity: Non-Toxic
[6]
  Activity: Non-Toxic
[7]
  EC50: 38.8 nM
[8]
  EC50: 11 nM
[9]
  Activity: Non-Toxic
[10]
  Activity: Non-Toxic
[11]
  MRT last: 38.9 min
[12]
  Cmax: 7.71 ng/mL
[13]
  Activity: Non-Toxic
[14]
  IC50: 70 nM
[15]
  half-life: 10 min
[16]
  Activity: Non-Toxic
[17]
  Vd: 0.771 L/kg
[18]
  Activity: Non-Toxic
[19]
  AUC(0-inf): 1740 ng·h/mL
[20]
  EC50: 10.9 nM
[21]
  half-life: 142 min
[22]
  Activity: Non-Toxic
[23]
  Activity: Non-Toxic
[24]
  Activity: Non-Toxic
[25]
  Activity: Non-Toxic
[26]
  remaining at 2 h: 97.1%
[27]
  AUC(0-t): 1730 ng·h/mL
[28]
  EC50: 14.6 nM
[29]
  Activity: Non-Toxic
[30]
  EC50: 14.9 nM
[31]
  clearance: 19.4 mL/min/kg
[32]
  Activity: Non-Toxic
[33]
  Tmax: 30 min
[34]
  Activity: Non-Toxic
[35]
  microsomal CLint at 1 h: 138 µL/min/mg
[36]
  EC50: 31 nM
[37]
  Activity: Non-Toxic
[38]
  remaining at 1 h: 1.6%
[39]
  MRT inf: 39.8 min
[40]
  Activity: Non-Toxic
[41]
  Activity: Non-Toxic
[42]
  half-life: 56.5 min
[43]
  MRT inf: 214 min
[44]
  EC50: 1.88 nM
[45]
  AUC(0-t): 16 ng·h/mL
[46]
  EC50: 2.71 nM
[47]
  Activity: Non-Toxic
[48]
  CC50 at 120 h: 10800 nM
[49]
  Activity: Non-Toxic
[50]
  AUC(0-inf): 23.4 ng·h/mL
